# Reference: ChEMBL document CHEMBL5463729, “Data for DCP probe BAY 1753011” (2023)
# pIC50, pKi: −log10 of the molar value.
# Legend:
# [1] = molecular target: Tyrosine-protein kinase JAK2 (Homo sapiens) (UniProt O60674); assay: Inhibition of JAK2(h) at 10.0 µM in the Eurofins Kinase panel; conditions: Compound concentration 10.0 uM
# [2] = molecular target: Calcium/calmodulin-dependent protein kinase type II subunit delta (Homo sapiens) (UniProt Q13557); assay: Inhibition of CaMKIIdelta(h) at 10.0 µM in the Eurofins Kinase panel; conditions: Compound concentration 10.0 uM
# [3] = molecular target: Wee1-like protein kinase (Homo sapiens) (UniProt P30291); assay: Inhibition of WEE1(h) at 10.0 µM in the Eurofins Kinase panel; conditions: Compound concentration 10.0 uM
# [4] = molecular target: Tyrosine-protein kinase ABL1 (Homo sapiens) (UniProt P00519); assay: Inhibition of Abl(h) at 10.0 µM in the Eurofins Kinase panel; conditions: Compound concentration 10.0 uM
# [5] = molecular target: T1, Muscarinic acetylcholine receptor M4 (Homo sapiens) (UniProt P08173); conditions: Compound concentration 10.0 uM
# T1 sequence (whole entry): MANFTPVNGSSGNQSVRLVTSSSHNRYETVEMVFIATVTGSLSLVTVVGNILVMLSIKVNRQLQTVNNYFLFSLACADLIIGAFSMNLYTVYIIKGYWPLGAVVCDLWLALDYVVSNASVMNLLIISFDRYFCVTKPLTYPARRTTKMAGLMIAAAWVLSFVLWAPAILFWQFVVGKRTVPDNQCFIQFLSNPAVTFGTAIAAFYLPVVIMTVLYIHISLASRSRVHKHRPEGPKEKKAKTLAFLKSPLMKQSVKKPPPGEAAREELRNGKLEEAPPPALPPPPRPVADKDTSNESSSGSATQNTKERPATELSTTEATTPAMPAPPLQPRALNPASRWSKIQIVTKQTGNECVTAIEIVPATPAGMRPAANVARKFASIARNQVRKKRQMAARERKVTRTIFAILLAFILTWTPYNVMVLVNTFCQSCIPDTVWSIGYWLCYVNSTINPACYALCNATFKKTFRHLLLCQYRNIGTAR
# [6] = molecular target: mTOR/FKBP12A/FKBP12B (Homo sapiens) (UniProt P62942+P68106+P42345); assay: Inhibition of mTOR FKBP12(h) at 10.0 µM in the Eurofins Kinase panel; type: protein-complex assay; conditions: Compound concentration 10.0 uM
# [7] = molecular target: Melanocortin receptor 5 (Homo sapiens) (UniProt P33032); assay: Inhibition of Melanocortin MC5 at 10 µM in the Eurofins-Panlabs radioligand binding assay (Eurofins_assay_251400); design: ligand concentration 0.035 nM; conditions: Compound concentration 10.0 uM
# [8] = molecular target: Glutamate receptor ionotropic, kainate (Rattus norvegicus) (UniProt P22756+Q01812+P42260+P42264+Q63273); assay: Inhibition of Glutamate, Kainate at 10 µM in the Eurofins-Panlabs radioligand binding assay (Eurofins_assay_232700); conditions: Compound concentration 10.0 uM
# [9] = molecular target: T2, Oxytocin receptor (Homo sapiens, UniProt P30559); assay: Inhibition of Oxytocin at 1 µM in the Eurofins-Panlabs radioligand binding assay (Eurofins_assay_260900); design: ligand concentration 0.8 nM, non-specific ligand with concentration 1 µM Oxytocin, incubation time 2 h, incubation temperature 25°C
# T2 sequence (P30559 whole entry): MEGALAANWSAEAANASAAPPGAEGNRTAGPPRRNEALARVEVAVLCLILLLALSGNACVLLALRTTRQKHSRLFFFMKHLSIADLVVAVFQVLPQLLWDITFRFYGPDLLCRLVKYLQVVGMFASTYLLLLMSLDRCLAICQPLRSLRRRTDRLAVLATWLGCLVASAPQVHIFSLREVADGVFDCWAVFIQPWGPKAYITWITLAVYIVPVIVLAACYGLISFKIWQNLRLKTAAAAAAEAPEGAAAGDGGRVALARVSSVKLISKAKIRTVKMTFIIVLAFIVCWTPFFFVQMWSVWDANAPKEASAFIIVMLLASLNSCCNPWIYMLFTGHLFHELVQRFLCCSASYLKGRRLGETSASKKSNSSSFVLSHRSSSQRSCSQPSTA
# [10] = molecular target: Angiopoietin-1 receptor (Homo sapiens) (UniProt Q02763); assay: Inhibition of Tie2(h) at 10.0 µM in the Eurofins Kinase panel; conditions: Compound concentration 10.0 uM
# [11] = molecular target: Glycogen synthase kinase-3 beta (Homo sapiens) (UniProt P49841); assay: Inhibition of GSK3beta(h) at 10.0 µM in the Eurofins Kinase panel; conditions: Compound concentration 10.0 uM
# [12] = molecular target: Mitogen-activated protein kinase 1 (Homo sapiens) (UniProt P28482); assay: Inhibition of Protein Serine/Threonine Kinase, MAPK1 (ERK2) at 10 µM in the Eurofins-Panlabs enzyme assay (Eurofins_assay_171120); design: substrate with concentration; conditions: Compound concentration 10.0 uM
# [13] = molecular target: Protein phosphatase 3 catalytic subunit alpha (Homo sapiens) (UniProt Q08209); assay: Inhibition of Protein Serine/threonine Phosphatase, PPP3CA (Calcineurin, PP2B) at […] µM in the Eurofins-Panlabs enzyme assay (Eurofins_assay_188020); design: substrate with concentration; conditions: Compound concentration 11.0 uM
# [14] = Inhibition of Atrial Natriuretic Factor (ANF) at 10 µM in the Eurofins-Panlabs radioligand binding assay (Eurofins_assay_211000); conditions: Cavia porcellus; Compound concentration 10 uM; Assay protocol publication PMID: 2408776; Detection method Radioligand Binding; Incubation temperature 4 °C; Incubation time 60 min; Ligand Bmax 0.013 pM/ mg protein; Ligand Kd 0.14 nM; Ligand [125I] ANF (rat); Ligand concentration 0.016 nM; Ligand specific binding 78 %; Non-specific ligand with concentration 0.1 µM ANF (rat); Reference compound ANF (rat); Source of …
# [15] = molecular target: Phosphodiesterase 3 (Homo sapiens) (UniProt Q14432+Q13370); assay: Inhibition of Phosphodiesterase PDE3 at compound concentration of 10.0 uM in the Eurofins-Panlabs enzyme assay (Eurofins_assay_152000); type: protein assay; design: substrate with concentration 1.01 uM [3H] cAMP + cAMP, incubation time 20 min, incubation temperature 25 C; conditions: Compound concentration 10.0 uM
# [16] = molecular target: T3, Muscarinic acetylcholine receptor M5 (Homo sapiens) (UniProt P08912); assay: Inhibition of Muscarinic M5 at 10 µM in the Eurofins-Panlabs radioligand binding assay (Eurofins_assay_253010); design: ligand concentration 0.8 nM; conditions: Compound concentration 10.0 uM
# T3 sequence (whole entry): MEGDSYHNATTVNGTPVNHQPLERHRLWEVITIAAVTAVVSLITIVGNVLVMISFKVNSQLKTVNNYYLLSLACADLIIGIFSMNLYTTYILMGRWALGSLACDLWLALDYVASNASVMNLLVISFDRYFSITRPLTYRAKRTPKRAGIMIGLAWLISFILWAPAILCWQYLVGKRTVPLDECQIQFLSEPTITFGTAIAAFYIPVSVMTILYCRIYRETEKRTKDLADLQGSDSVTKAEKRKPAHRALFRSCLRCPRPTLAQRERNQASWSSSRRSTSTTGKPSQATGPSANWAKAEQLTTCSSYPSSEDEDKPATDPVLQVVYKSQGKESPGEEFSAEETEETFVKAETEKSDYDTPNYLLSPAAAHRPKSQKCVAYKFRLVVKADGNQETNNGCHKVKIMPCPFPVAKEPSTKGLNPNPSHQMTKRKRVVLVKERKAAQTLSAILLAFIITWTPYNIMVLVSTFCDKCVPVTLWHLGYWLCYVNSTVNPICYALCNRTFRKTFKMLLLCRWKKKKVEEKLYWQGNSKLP
# [17] = molecular target: Substance-P receptor (Homo sapiens) (UniProt P25103); assay: Inhibition of Tachykinin NK1 at 10 µM in the Eurofins-Panlabs radioligand binding assay (Eurofins_assay_255520); design: ligand concentration 0.8 nM; conditions: Compound concentration 10.0 uM
# Sequence of Substance-P receptor (Homo sapiens) (P25103 whole entry): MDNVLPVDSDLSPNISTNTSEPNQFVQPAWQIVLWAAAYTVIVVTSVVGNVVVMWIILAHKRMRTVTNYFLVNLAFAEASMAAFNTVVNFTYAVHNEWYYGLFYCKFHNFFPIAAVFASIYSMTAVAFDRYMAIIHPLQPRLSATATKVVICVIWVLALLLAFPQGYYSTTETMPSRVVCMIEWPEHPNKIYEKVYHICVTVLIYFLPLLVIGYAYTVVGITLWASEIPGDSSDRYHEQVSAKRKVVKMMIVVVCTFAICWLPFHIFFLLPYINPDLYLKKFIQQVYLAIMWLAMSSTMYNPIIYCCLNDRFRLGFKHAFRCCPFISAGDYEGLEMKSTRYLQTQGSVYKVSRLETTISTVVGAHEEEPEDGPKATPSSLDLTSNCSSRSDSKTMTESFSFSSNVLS
# Sequence of Tyrosine-protein kinase ABL1 (Homo sapiens) (P00519 whole entry): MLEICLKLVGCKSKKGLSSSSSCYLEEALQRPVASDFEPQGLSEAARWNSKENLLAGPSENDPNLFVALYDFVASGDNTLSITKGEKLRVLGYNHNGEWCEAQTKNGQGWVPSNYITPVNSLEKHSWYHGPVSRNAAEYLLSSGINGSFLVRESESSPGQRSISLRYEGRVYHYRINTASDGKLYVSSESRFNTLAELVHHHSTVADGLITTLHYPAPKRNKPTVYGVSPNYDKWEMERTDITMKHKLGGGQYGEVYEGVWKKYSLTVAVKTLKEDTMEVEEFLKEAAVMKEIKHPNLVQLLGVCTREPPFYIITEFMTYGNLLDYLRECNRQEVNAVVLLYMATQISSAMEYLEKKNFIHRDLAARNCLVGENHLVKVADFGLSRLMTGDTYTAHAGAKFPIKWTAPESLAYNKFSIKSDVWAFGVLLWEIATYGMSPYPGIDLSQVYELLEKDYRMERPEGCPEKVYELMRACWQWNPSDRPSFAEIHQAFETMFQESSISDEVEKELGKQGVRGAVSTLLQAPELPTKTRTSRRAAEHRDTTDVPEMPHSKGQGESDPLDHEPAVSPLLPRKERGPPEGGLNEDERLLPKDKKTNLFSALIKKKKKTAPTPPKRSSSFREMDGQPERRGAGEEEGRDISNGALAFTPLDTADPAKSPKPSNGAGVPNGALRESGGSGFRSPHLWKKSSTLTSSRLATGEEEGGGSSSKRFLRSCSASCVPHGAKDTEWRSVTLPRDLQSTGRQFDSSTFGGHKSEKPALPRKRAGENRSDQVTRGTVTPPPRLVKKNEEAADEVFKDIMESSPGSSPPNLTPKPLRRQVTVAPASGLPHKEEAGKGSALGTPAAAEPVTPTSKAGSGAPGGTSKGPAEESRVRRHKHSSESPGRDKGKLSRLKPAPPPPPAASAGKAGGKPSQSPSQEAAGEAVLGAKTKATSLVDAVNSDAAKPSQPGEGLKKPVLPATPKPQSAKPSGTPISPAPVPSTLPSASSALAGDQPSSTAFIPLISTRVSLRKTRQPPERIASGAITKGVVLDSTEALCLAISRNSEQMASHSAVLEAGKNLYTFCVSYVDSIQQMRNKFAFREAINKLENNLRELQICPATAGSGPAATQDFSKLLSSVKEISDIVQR
# Sequence of Melanocortin receptor 5 (Homo sapiens) (P33032 whole entry): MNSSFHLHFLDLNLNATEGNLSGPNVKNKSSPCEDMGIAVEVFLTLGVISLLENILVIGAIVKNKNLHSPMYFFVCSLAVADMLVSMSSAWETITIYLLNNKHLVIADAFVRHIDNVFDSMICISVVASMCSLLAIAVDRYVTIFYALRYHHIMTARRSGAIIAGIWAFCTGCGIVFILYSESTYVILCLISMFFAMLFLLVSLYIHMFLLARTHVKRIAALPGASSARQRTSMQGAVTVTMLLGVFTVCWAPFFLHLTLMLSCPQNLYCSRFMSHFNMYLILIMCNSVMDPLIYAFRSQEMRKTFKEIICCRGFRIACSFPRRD
# Sequence of Glycogen synthase kinase-3 beta (Homo sapiens) (P49841 whole entry, looked up): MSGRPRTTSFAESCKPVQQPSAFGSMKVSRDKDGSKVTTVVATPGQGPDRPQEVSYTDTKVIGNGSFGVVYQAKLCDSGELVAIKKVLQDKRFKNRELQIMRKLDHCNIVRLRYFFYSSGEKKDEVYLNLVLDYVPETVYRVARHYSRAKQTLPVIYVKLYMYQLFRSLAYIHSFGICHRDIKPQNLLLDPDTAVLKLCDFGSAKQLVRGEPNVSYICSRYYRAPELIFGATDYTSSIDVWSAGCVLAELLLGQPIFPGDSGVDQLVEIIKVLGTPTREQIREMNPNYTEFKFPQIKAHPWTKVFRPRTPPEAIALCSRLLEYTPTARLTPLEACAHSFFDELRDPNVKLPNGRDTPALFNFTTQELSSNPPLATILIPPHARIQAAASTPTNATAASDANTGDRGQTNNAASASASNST
# Sequence of Angiopoietin-1 receptor (Homo sapiens) (Q02763 whole entry): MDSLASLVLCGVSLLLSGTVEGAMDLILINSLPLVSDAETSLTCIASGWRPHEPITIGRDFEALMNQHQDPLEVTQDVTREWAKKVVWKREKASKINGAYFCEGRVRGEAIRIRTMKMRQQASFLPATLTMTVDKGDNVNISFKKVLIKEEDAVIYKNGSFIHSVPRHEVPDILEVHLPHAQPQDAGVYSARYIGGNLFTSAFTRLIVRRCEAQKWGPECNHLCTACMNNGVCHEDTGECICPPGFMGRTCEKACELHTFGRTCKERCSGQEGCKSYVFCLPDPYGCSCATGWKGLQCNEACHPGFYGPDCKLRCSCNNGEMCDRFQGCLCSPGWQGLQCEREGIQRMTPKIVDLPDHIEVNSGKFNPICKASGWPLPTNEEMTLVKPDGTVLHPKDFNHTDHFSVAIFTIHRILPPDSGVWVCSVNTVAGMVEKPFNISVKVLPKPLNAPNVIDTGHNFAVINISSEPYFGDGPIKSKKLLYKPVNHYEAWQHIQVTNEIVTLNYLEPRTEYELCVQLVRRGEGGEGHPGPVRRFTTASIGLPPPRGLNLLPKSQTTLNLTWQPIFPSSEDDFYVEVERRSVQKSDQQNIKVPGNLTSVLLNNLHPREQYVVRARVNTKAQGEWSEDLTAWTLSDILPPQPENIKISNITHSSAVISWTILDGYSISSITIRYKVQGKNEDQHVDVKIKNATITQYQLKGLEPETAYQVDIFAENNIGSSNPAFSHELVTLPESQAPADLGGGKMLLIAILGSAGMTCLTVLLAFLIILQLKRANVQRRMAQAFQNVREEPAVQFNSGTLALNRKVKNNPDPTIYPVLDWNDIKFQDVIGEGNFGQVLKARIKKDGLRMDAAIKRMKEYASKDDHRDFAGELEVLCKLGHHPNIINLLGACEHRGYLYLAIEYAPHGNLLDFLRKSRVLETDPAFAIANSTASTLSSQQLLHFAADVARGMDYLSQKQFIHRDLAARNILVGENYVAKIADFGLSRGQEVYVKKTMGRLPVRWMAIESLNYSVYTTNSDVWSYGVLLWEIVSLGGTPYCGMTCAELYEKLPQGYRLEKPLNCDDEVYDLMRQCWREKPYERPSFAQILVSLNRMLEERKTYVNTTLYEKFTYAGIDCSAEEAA
# Sequence of Mitogen-activated protein kinase 1 (Homo sapiens) (P28482 whole entry): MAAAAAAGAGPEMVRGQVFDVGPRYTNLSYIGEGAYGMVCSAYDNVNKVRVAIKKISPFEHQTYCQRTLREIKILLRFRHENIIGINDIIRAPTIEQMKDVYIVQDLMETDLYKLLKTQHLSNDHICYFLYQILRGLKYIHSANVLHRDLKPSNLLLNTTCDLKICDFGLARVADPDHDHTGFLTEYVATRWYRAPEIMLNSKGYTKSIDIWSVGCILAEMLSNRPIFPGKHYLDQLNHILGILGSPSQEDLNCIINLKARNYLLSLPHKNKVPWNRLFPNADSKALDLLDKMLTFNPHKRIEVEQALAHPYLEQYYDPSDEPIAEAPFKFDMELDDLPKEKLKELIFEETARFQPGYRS
# Sequence of Calcium/calmodulin-dependent protein kinase type II subunit delta (Homo sapiens) (Q13557 whole entry): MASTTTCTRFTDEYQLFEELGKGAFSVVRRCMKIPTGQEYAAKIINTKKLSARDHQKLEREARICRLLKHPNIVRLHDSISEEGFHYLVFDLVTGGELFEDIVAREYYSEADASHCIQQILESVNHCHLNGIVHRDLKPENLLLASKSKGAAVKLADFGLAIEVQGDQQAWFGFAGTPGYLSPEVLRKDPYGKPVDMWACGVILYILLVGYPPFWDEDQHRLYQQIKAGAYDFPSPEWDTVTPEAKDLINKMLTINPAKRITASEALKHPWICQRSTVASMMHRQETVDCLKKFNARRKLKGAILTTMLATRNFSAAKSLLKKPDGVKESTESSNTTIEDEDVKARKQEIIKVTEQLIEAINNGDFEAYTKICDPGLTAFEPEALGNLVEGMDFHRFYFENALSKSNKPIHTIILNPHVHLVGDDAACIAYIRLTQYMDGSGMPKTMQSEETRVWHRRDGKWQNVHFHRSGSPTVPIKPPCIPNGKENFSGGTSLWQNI
# Sequence of mTOR/FKBP12A/FKBP12B (Homo sapiens) (P62942 2-108 limits assumed, other chains not shown): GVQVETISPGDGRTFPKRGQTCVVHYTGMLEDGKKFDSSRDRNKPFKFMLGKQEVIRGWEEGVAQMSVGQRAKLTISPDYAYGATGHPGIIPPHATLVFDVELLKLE
# Sequence of mTOR/FKBP12A/FKBP12B (Homo sapiens) (P68106 whole entry partner, other chains not shown): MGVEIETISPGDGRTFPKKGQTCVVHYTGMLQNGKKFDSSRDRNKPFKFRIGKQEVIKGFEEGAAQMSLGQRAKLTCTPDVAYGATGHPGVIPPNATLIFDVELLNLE
inhibition [1] [%],inhibition [2] [%],inhibition [3] [%],inhibition [4] [%],inhibition [5] [%],SMILES,inhibition [6] [%],inhibition [7] [%],inhibition [8] [%],pIC50 [9],pKi [9],inhibition [10] [%],inhibition [11] [%],inhibition [12] [%],inhibition [13] [%],inhibition at 10 µM [14],inhibition [15] [%],inhibition [16] [%],inhibition [17] [%]
-4.95,-4.39,-5.39,-3.62,-9.78,O=c1n(Cc2cncn2-c2cccc(Cl)c2)nc(-c2ccc(Cl)cc2)n1C[C@H](O)C(F)(F)F,,,,,,,,,,,,,
,,,,,C[C@H](O)c1nc(Cn2nc(-c3ccc(Cl)cc3)n(C[C@H](O)C(F)(F)F)c2=O)nn1-c1cccc(Cl)c1 [PECAVAPTAN],2.46,13,-4,7.81,8.30,-8.17,-4.15,-2,32,1% (not active),0,6,20
